From patent publication US8263326B2, “Compounds and methods for modulating activation of NF-κB” (Signal Pharmaceuticals, LLC, priority 1998, dated 2012)
Non-standard residues stand in square brackets, D forms with d. No end group written: not given here. pS = N[C@@H](COP(=O)(O)O)C(=O)O

Legend:
pIκBα degradation = assay: Ubiquitin-dependent in vitro degradation assay with extracts from stimulated HeLa cells; type: biochemical, human; details: 40 μM peptide, FIG. 2
Method: FIG. 2 is an autoradiogram depicting the results of an in vitro ubiquitin-dependent degradation assay performed using extracts from stimulated HeLa cells. In each lane of the SDS-PAGE, the level of phosphorylated (upper band) and non-phosphorylated (lower band) HA-tagged IκBα polypeptide (SEQ ID NO: 12) following the degradation assay is shown. […] In lanes 2-6, ATP was included in the reaction mixture. 40 μM candidate modulating agents were added to the reactions shown in lanes 3-6: doubly phosphorylated IκBα peptide (pp21 (SEQ ID NO:9), lane 3); doubly phosphorylated IκBα peptide (pp19 (SEQ ID NO:8), lane 4); c-Fos phosphopeptide (ppFos (SEQ ID NO: 10), lane 5); and non-phosphorylated IκBα peptide (p21 (SEQ ID NO:9), lane 6).
The inhibitory pIκBα peptides were tested in a complementary ubiquitin-dependent in vitro degradation assay (Orian et al., J. Biol. Chem. 270:21707, 1995; Stancovski et al., Mol. Cell. Biol. 75:7106, 1995). Using this assay, only pIκBα derived from stimulated cells is degraded in vitro in a ubiquitin-dependent manner, whereas the non-phosphorylated IκBα from the same cell extract is not subject to degradation.

[1] = tested on: IκBα-ubiquitin ligase (pIκBα ubiquitination); assay: In vitro ubiquitination assay of phosphorylated, NF-κB complex-associated IκBα in HeLa cell extract; type: biochemical, human; details: peptide at a concentration of 400 μM; Bestatin 40 μg/ml
Method: Following incubation, 1 μl of anti-p65 serum was added, and the NF-κB immune complex was immobilized to Protein A-Sepharose® and subjected to in vitro ubiquitination in HeLa cell extract as described by Alkalay et al. Ubiquitinated proteins were separated by SDS-PAGE and visualized by autoradiography.
To identify the IκBα-ubiquitin ligase recognition motif, various peptides were added at varying concentrations to the reaction mixtures in the presence of the peptidase inhibitor Bestatin (40 μg/ml). The peptides spanned the N-terminal signaling domain of the protein, and were phosphorylated at one or both serine residues (32 and 36), or were unmodified or serine-substituted. These peptides were included in the ubiquitination reaction at different concentrations and tested for inhibition of pIκBα specific ubiquitination. When conjugation of free IκBα was monitored, the translated protein was added directly to the conjugation reaction mixture.

[2] = tested on: E-selectin expression in primary human vascular endothelial cells (HUVEC); assay: Microinjection into HUVEC, TNFα activation, E-selectin staining; type: cell-based; details: microinjected peptide, TNFα 3 hours
Method: (§1) HeLa cells were plated on a grid coverslips (Cellocate, Eppendorf) 18 hours before microinjection. Microinjection was performed with a 22 amino acid pIκBα peptide (pp21; Table I and SEQ ID NO:9) or a control phospho-Fos peptide (SEQ ID NO: 10) using a semi-automated apparatus (Eppendorf). Peptides were injected into the cell cytoplasm at a concentration of 5 mg/ml in 100 mM KCl, 5 mM Na2HPO4 (pH 7.2), and immediately activated with TNFα (200 units/mL) for either 20 minutes (for NF-κB translocation) or 3 hours (for E-selectin expression). Following activation, the cells were fixed and stained with p65 specific antibodies (Mercurio et al., Genes & Dev. 7:705, 1993; Santa Cruz) or monoclonal anti-E-selectin antibodies (R&D Systems).
To further assess the functional consequences of NF-κB inhibition, the IκB-E3 inhibitory peptide was microinjected into primary human vascular endothelial cells (HUVEC; Chen et al, J. Immunol 155:3538, 1995). These cells respond to TNFα stimulation by surface expression of NF-κB regulated adhesion proteins, such as E-selection. HUVEC cells were plated, microinjected and stimulated as described above. Three hours post stimulation the cells were fixed and stained for expression of the NF-κB dependent E-selection. 75%-85% of the HUVEC cells were intensely stained for E-selectin following TNFα stimulation in several experiments. […] In contrast, the control pp-Fos peptide had no effect on E-selectin expression, as compared to non-microinjected cells (FIGS. 4F and 4H, column 4). Microinjection of a control, S32736A substituted IκBα peptide had no effect on the rate of E-selectin expression.

IκB E3 in HeLa lysate = assay: Fractionation of HeLa lysate over peptide-Sepharose columns, flow-through tested in ubiquitination assay; type: binding, human; details: peptide coupled to NHS-Sepharose, HeLa extract, FIG. 3A
Method: pIκBα-ubiquitin conjugation and degradation requires a full complement of the ubiquitin system enzymes: E1, a specific E2 derived from the ubiquitin system fraction I, E2F1 (Alkalay et al., Proc. Natl. Acad. Sci. USA 92:10599, 1995; Chen et al., Cell 84:853, 1996) and a Fraction II-component E3. To identify the ubiquitin system component involved in the substrate recognition, HeLa lysate was fractionated over IκBα phosphopeptide columns, and the flow-through fractions were assayed for pIκBα conjugation. Peptides were coupled to NHS-Sepharose® (Pharmacia) according to the manufacturer's instructions at a concentration of 2 mg/ml. 100 μg of HeLa extract were incubated with 2.5 μl coupled resin in the presence of 0.1% NP40 and 3% ovalbumin for 1 hour at 4° C. The resin was discarded and the unbound material tested in the ubiquitination assay described above.

[3] = tested on: NF-κB nuclear translocation in HeLa cells; assay: Microinjection into HeLa cells, TNFα activation, p65 nuclear staining; type: cell-based, human; details: 5 mg/ml peptide microinjected
Method: as §1

pIκBα = target: T1, pIκBα (Homo sapiens, UniProt P25963); assay: Binding of immobilized FLAG-tagged E3 family members to IκBα/NF-κB complex (Western blot); details: FIG. 11A
T1 construct: The IκBα/NF-κB complex was immunopurified from HeLa cells; endogenous in cells; host or cells: HeLa cells
Method: FIGS. 11A-11C are Western blots illustrating binding and ubiquitination specificity of E3 ubiquitin ligase family members. Within these figures, mβ-TrCP indicates mouse β-TrCP, hβ-TrCP indicates human β-TrCP, Δβ-TrCP indicates human β-TrCP with a deletion of the F box region and Slimb indicates the Drosophila Slimb protein. FIG. 11A illustrates selective binding to pIκBα. Proteins were immunoprecipitated through a FLAG epitope from transfected 293T cells, incubated with immunopurified IκBα/NF-κB complex, which had been treated (−/+IKK) as indicated and the bound material was analyzed by Western blotting with the indicated antibodies. […] FIG. 11C illustrates in vitro ubiquitination of pIκBα by the E3 family member proteins. Immunopurified FLAG-tagged proteins were incubated with ^35 S-labeled IκBα/NF-κB complexes, treated (−/+IKK) as indicated and subject to ubiquitination in the presence of ATPγS, ubiquitin. E1 and UBC5C. The IκBα substrate (composed of full-length and two degradation products), pIκBα-polyubiquitin conjugates and molecular size markers are indicated on the left.
The ability of these proteins to bind pIκBα specifically and assist in its ubiquitination was examined in a cell-free system. The IκBα/NF-κB complex was immunopurified from HeLa cells and the immune complex was either phosphorylated with IKK2-EE or mock-phosphorylated as described above. It was then incubated with the following immobilized FLAG-tagged E3 family members immunoprecipitated from transfected 293 cells: mouse β-TrCP (mβ-TrCP), human β-TrCP (hβ-TrCP), human β-TrCP with a deletion of the F box region residues 122-168 (Δβ-TrCP) and the Drosophila Slimb protein. The bound material was analyzed by Western blotting with anti-IκBα and anti-FLAG antibodies. […] Furthermore, β-TrCP binding was abrogated by a peptide representing the pIκBα recognition motif (pp10; DRHDS(PO3)GLDS(PO3)M (SEQ ID NO:29); see FIG. 11B, lane 3), but not by the control peptide (lane 4), specifying the site of pIκBα recognition of the conserved DS(PO3)GLDS(PO3) (SEQ ID NO:30) sequence.

T1 sequence (P25963 whole entry): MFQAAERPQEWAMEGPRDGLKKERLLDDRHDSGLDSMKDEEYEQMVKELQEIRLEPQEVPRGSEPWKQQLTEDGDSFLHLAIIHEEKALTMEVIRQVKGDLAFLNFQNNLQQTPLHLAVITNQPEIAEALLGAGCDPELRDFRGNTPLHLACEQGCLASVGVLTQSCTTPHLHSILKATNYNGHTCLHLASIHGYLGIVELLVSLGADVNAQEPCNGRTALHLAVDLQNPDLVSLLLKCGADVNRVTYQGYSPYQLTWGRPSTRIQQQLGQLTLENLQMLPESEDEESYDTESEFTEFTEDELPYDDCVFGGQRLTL
T1 sequence (Q04206 whole entry partner): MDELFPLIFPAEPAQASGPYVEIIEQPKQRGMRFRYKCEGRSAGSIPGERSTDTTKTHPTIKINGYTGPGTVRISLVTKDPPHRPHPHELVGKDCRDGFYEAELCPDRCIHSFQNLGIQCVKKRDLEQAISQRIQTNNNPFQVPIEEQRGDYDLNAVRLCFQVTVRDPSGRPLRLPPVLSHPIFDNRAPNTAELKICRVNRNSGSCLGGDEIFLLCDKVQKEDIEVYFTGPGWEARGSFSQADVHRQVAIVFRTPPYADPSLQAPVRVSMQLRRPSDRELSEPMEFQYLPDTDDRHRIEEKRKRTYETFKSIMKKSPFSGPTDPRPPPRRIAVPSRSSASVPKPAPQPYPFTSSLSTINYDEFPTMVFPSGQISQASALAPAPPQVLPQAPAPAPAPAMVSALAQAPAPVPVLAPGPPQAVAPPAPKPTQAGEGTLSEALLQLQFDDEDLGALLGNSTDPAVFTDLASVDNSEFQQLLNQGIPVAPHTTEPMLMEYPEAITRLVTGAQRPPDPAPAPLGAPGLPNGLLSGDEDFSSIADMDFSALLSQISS

Molecule: p21: non-phosphorylated IκBα peptide, SEQ ID NO:9 (CKKERLLDDRHDSGLDSMKDEE; listed as Homo sapiens)
- effect on specific pIκBα degradation (pIκBα degradation): no effect
- effect on the ubiquitination of pIκB [1]: no detectable effect

Molecule: p21 S/A: serine 32, 36 to alanine substituted IκBα peptide, SEQ ID NO:11 (CKKERLLDDRHDAGLDAMKDEE; listed as Homo sapiens)
- effect on the ubiquitination of pIκB [1]: no detectable effect
- effect on E-selectin expression [2]: no effect
- IκBα conjugation capacity of column flow-through fraction (IκB E3 in HeLa lysate): retained full IκBα conjugation capacity

Molecule: pp21: doubly phosphorylated IκBα peptide, SEQ ID NO:9; 22 amino acid pIκBα peptide (CKKERLLDDRHD[pS]GLD[pS]MKDEE; listed as Homo sapiens)
- microinjected cells with inhibition of E-selectin expression [2]: 70%-80%
- microinjected cells in which TNFα-stimulated NF-κB activation was abolished ([3]; TNFα 200 units/mL 20 minutes, several experiments): 50%-70%

Molecule: ppFos: c-Fos phosphopeptide, SEQ ID NO:10, control (IGRRGKVEQLSPEEEEKRR; not fully specified (residue 11); also: phosphorylated, sites not given here; listed as Homo sapiens)
- effect on specific pIκBα degradation (pIκBα degradation): no effect
- effect on the ubiquitination of pIκB [1]: no detectable effect
- effect on E-selectin expression [2]: no effect
- IκBα conjugation capacity of column flow-through fraction (IκB E3 in HeLa lysate): retained full IκBα conjugation capacity
- effect on the rate of NF-κB induced nuclear translocation ([3]; compared to non-microinjected cells): no effect

B1: mβ-TrCP: FLAG-tagged mouse β-TrCP, E3 family member (protein)
chain: MDPAEAVLQEKALKFMNSSEREDCNNGEPPRKIIPEKNSLRQTYNSCARLCINQETVCLTSTAMKTENCVAKAKLANGTSSMIVPKQRKLSASYEKEKELCVKYFEQWSESDQVEFVEHLISQMCHYQHGHINSYLKPMLQRDFITALPARGLDHIAENILSYLDAKSLCAAELVCKEWYRVTSDGMLWKKLIERMVRTDSLWRGLAERRGWGQYLFKNKPPDENAPPNSFYRALYPKIIQDIETIESNWRCGRHSLQRIHCRSETSKGVYCLQYDDQKIVSGLRDNTIKIWDKSTLECKRILTGHTGSVLCLQYDERVIITGSSDSTVRVWDVNAGEMLNTLIHHCEAVLHLRFNNGMMVTCSKDRSIAVWDMASPTDITLRRVLVGHRAAVNVVDFDDKYIVSASGDRTIKVWNTSTCEFVRTLNGHKRGIACLQYRDRLVVSGSSDNTIRLWDIECGACLRVLEGHEELVRCIRFDNKRIVSGAYDGKIKVWDLMAALDPRAPAGTLCLRTLVEHSGRVFRLQFDEFQIVSSSHDDTILIWDFLNDPAAHAEPPRSPSRTYTYISR
modifications: left off: small tags and cut ends
notes: FLAG-tagged mouse β-TrCP, E3 family member
- relative binding of IκBα / pIκBα (pIκBα; comparison between family members): far better than the highly homologous Drosophila protein
- binding to IKK-phosphorylated versus mock-phosphorylated IκBα (pIκBα; FLAG-tagged protein from transfected 293 cells): exclusively bound IKK-phosphorylated, but not mock-phosphorylated, IκBα
